This assay deals with T1, human apelin receptor (Homo sapiens, UniProt P35414).
T1 construct: expressed in transfected cells
T1 sequence (P35414 1-380): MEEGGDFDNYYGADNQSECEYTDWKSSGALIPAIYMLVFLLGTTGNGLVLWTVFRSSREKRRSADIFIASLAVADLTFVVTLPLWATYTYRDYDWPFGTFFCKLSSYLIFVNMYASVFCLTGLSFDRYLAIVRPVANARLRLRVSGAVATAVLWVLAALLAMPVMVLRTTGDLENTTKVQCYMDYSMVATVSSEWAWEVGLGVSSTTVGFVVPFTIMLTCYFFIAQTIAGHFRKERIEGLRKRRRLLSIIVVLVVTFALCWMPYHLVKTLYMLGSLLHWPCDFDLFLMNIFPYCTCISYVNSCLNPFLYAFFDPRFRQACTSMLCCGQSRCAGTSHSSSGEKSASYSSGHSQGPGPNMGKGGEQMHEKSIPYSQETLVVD
Briefly: Determination of agonism on the human apelin receptor by a calcium fluorescence assay (FLIPR). The format is cell-based. As to conditions: HEK293 cells stably transfected with human apelin receptor and Giaq protein, Fluo-4 calcium fluorescence, read-out: EC50 (APJ agonism). The essentials:
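HEK293 cells stably co-expressing human apelin receptor and promiscuous Giaq, loaded 1 h at 37 °C with Fluo-4 (4 μM) in probenecid-containing Hepes buffer, pH 7.4. Compounds, at least 7 concentrations in triplicate, added in FLIPR Tetra; peak calcium fluorescence normalized to 1 μM apelin-13 as 100% to derive EC50.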

For `CCC(CC)n1c(Cc2cccs2)nc2cc(C(=O)N[C@@H](CC(C)C)C(=O)NC3CCC3)ccc21` [Example 215, 1-(1-Ethyl-propyl)-2-thiophen-2-ylmethyl-1H-benzoimidazole-5-carboxylic acid ((S)-1-cyclobutylcarbamoyl-3-methyl-butyl)-amide], the EC50 was 1450 nM. Turning to `CC(C)C[C@H](NC(=O)c1ccc2c(c1)nc(Cc1cccs1)n2CC1CCCCC1)C(=O)O` [Example 83, (S)-2-[(1-Cyclohexylmethyl-2-thiophen-2-ylmethyl-1H-benzoimidazole-5-carbonyl)-amino]-4-methyl-pentanoic acid], the EC50 came out at 18200 nM. The value for `CC(C)C[C@@H](CC(=O)O)NC(=O)c1ccc2c(c1)nc(Cc1ccco1)n2C1CCCCC1C` (single isomer, unassigned) [Example 433] was 1720 nM; that for `CC(C)C[C@H](NC(=O)c1ccc2c(c1)nc(Cc1ccco1)n2C1CCCCC1C)C(=O)O` (single isomer, unassigned) [Example 416] was 25 nM. For the molecule `CCC(CC)n1c(Cc2cccs2)nc2cc(C(=O)N[C@@H](CC(C)C)C(=O)N3CC(C(=O)O)C3)ccc21` [Example 411, 1-((S)-2-{[1-(1-Ethyl-propyl)-2-thiophen-2-ylmethyl-1H-benzoimidazole-5-carbonyl]-amino}-4-methyl-pentanoyl)-azetidine-3-carboxylic acid], the EC50 came to 822 nM.

For the molecule `CCC(CC)n1c(Cc2cccs2)nc2cc(C(=O)N[C@@H](CC3CCCCC3)[C@@H](O)CC(=O)O)ccc21` [Example 79, (3S,4S)-5-Cyclohexyl-4-{[1-(1-ethyl-propyl)-2-thiophen-2-ylmethyl-1H-benzoimidazole-5-carbonyl]-amino}-3-hydroxy-pentanoic acid], the concentration for a half-maximal effect (EC50) was found to be 80 nM. The value for `CC1CCCCC1n1c(Cc2cccs2)nc2cc(C(=O)N[C@@H](CC3CCCCC3)C(=O)O)ccc21` (stereo partly drawn) [Example 15, (S)-3-Cyclohexyl-2-{[1-(2-methyl-cyclohexyl)-2-thiophen-2-ylmethyl-1H-benzoimidazole-5-carbonyl]-amino}-propionic acid] was 254 nM; that for `CCC(CC)n1c(Cc2cccs2)nc2cc(C(=O)N[C@@H](CC(C)C)C(=O)NC3CCN(C)CC3)ccc21` [Example 327, 1-(1-Ethyl-propyl)-2-thiophen-2-ylmethyl-1H-benzoimidazole-5-carboxylic acid [(S)-3-methyl-1-(1-methyl-piperidin-4-ylcarbamoyl)-butyl]-amide] was 111 nM.

On to `CCC(C)Cn1c(CC2CCCC2)nc2cc(C(=O)N[C@@H](CC(C)C)C(=O)O)ccc21` (stereo partly drawn) [Example 109, (S)-2-{[2-Cyclopentylmethyl-1-(2-methyl-butyl)-1H-benzoimidazole-5-carbonyl]-amino}-4-methyl-pentanoic acid], for which the EC50 was determined as 3860 nM. The value for `CCC(CC)n1c(Cc2cccs2)nc2cc(C(=O)N[C@@H](CC(C)C)C(=O)N3CCC(N(CC)Cc4ccccc4)CC3)ccc21` [Example 336, 1-(1-Ethyl-propyl)-2-thiophen-2-ylmethyl-1H-benzoimidazole-5-carboxylic acid {(S)-1-[4-(benzyl-ethyl-amino)-piperidine-1-carbonyl]-3-methyl-butyl}-amide] was 1260 nM. Take `CCC(CC)n1c(Cc2cccs2)nc2cc(C(=O)N[C@@H](CC(C)C)C(=O)NC3CCN(Cc4c(OC)cccc4OC)CC3)ccc21` [Example 288, 1-(1-Ethyl-propyl)-2-thiophen-2-ylmethyl-1H-benzoimidazole-5-carboxylic acid {(S)-1-[1-(2,6-dimethoxy-benzyl)-piperidin-4-ylcarbamoyl]-3-methyl-butyl}-amide]: the 50% effective concentration (EC50) stood at 512 nM. Turning to `CCC(CC)n1c(CC2CCCC2)nc2cc(C(=O)N[C@H](CO)[C@@H](C)CC)ccc21` [Example 180, 2-Cyclopentylmethyl-1-(1-ethyl-propyl)-1H-benzoimidazole-5-carboxylic acid ((1S,2S)-1-hydroxymethyl-2-methyl-butyl)-amide], the EC50 was determined as 6170 nM.
